Data on 28 compounds can be found in patent publication US8481731B2, “Compounds, pharmaceutical composition and methods relating thereto” (Boehringer Ingelheim International GmbH, priority 2009, dated 2013).

Marks after values point to notes of the source that are not given here.

One experiment deals with T1, human GPR119 receptor (Homo sapiens, UniProt Q8TDV5, S329A/T327A).
T1 construct: N-terminal leader […]; expressed in transfected cells
T1 sequence (Q8TDV5 with tags, fused parts or gaps T327A/S329A): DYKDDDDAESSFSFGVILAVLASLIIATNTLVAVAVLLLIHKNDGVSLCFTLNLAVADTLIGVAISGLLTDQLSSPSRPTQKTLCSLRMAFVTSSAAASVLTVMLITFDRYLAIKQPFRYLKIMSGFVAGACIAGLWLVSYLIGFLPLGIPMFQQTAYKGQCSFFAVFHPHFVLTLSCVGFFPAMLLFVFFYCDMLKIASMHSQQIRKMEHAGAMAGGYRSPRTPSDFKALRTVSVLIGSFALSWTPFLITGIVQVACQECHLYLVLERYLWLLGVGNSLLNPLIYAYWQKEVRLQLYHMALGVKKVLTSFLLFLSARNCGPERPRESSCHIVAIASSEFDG
Put plainly: cAMP assay (LANCE cAMP-384 Kit), cAMP accumulation in HEK293 cells stably expressing mutant human GPR119 receptor. The class given is cell-based. Particulars: cAMP accumulation; HEK293 cells stably expressing a mutant form of the human GPR119 receptor; 20 min at 37° C. On the procedure:
Quantitative detection of cAMP accumulation from cells expressing human GPR119 receptor was achieved using Perkin Elmer's LANCE cAMP-384 Kit (Cat#AD0264) according to the manufacturer's protocol. Briefly, HEK293 cells stably expressing a mutant form of the human GPR119 receptor (Methionine 1 replaced with the amino acid sequence […], and T327 & S329 changed to alanines) were grown to 50-70% confluency in cell culture media (DMEM, 10% heat inactivated Fetal Bovine Serum, 50 I.U./mL penicillin, 50 μg/mL streptomycin, 10 mM HEPES, 20 μg/mL G418 Sulfate). On the day of the assay, GPR119 stable HEK293 cells were lifted from the tissue culture plate and 1000 cells/well were incubated along with various concentrations of test compounds for 20 min at 37° C. Detection Buffer (50 mM HEPES, 10 mM calcium chloride, 0.35% Triton X-100, 1 mg/mL BSA) containing cAMP-specific antibody was then added to all wells and allowed to equilibrate in the dark for 10 minutes at room temperature. Upon equilibration, Detection Buffer containing europium-labeled cAMP tracer complex was added to all wells and allowed to react for 1 hour at room temperature. After 1 hour, bound europium-labeled cAMP tracer was measured using a Perkin Elmer ViewLux. The quantity of cAMP generated in each well was derived from a standard curve.
For some compounds for which no EC50 value could be determined, the efficacy is provided at a single concentration (10 μM) yielding % stimulation values.
In general terms: Cyclic AMP is a second messenger, typically raised through Gs and lowered through Gi signalling.
Turning to `Cc1c(OC2CCN(C(=O)OC(C)C)CC2)ncnc1N1CCc2ncccc21` [Compound 9-2, 4-[6-(2,3-Dihydro-pyrrolo[3,2-b]pyridin-1-yl)-5-methyl-pyrimidin-4-yloxy]-piperidine-1-carboxylic acid isopropyl ester], the EC50 (usually the midpoint of the concentration-response curve) was determined as 0.312 µM.

In turn, `CC(C)OC(=O)N1CCC(Oc2ccnc(N3CCc4cc(S(C)(=O)=O)ccc43)c2)CC1` [Compound 10-1, 4-[2-(5-Methanesulfonyl-2,3-dihydro-indol-1-yl)-pyridin-4-yloxy]-piperidine-1-carboxylic acid isopropyl ester] had an EC50 of 0.588 µM.

`COc1c(OC2CCN(C(=O)OC(C)C)CC2)ncnc1N1CCc2cc(S(C)(=O)=O)ccc21` [Compound 8-1, 4-[6-(5-Methanesulfonyl-2,3-dihydro-indol-1-yl)-5-methoxy-pyrimidin-4-yloxy]-piperidine-1-carboxylic acid isopropyl ester] displayed an EC50 of 0.201 µM.

In the case of `CC(C)OC(=O)N1CCC(Oc2cc(N3CCc4cc(S(C)(=O)=O)ccc43)ncn2)CC1` [Compound 4-1, 4-[6-(5-Methanesulfonyl-2,3-dihydro-indol-1-yl)-pyrimidin-4-yloxy]-piperidine-1-carboxylic acid isopropyl ester], the EC50 was found to be 0.033 µM.

Turning to `C=CCN(c1cc(N2CCc3cc(S(C)(=O)=O)ccc32)ncn1)C1CCN(C(=O)OC(C)(C)C)CC1` [Compound 16-5], the EC50 was determined as 0.023 µM.

`COCN(c1cc(N2CCc3cc(S(C)(=O)=O)ccc32)ncn1)C1CCN(C(=O)OC(C)(C)C)CC1` [Compound 16-3] came in with an EC50 of 0.906 µM.

The compound `CCN(c1cc(N2CCc3cc(S(C)(=O)=O)ccc32)ncn1)C1CCN(C(=O)OC(C)(C)C)CC1` [Compound 16-2] showed an EC50 of 0.029 µM.

In the case of `CC(C)OC(=O)N1CCC(N(C)c2cc(N3CCc4cc(S(C)(=O)=O)ccc43)ncn2)CC1` [Compound 7-1, 4-[6-(5-Methanesulfonyl-2,3-dihydro-indol-1-yl)-pyrimidin-4-yl-methylamino]-piperidine-1-carboxylic acid isopropyl ester], the EC50 worked out at 0.069 µM.

As for `CS(=O)(=O)c1ccc2c(c1)CCN2c1cc(OC2CCN(C(=O)OC3CCN(Cc4cccc(F)c4F)C3)CC2)ncn1` (stereo not shown) [Compound 21-4], the EC50 is 0.343 µM.

As for `CCC(C)N(c1cc(N2CCc3cc(S(C)(=O)=O)ccc32)ncn1)C1CCN(C(=O)OC(C)(C)C)CC1` (stereo not shown) [Compound 16-4], the EC50 was 0.095 µM.

In turn, `CN(c1cc(N2CCc3cc(S(C)(=O)=O)ccc32)ncn1)C1CCN(C(=O)OC(C)(C)C)CC1` [Compound 16-1, 4-{[6-(5-Methanesulfonyl-2,3-dihydro-indol-1-yl)-pyrimidin-4-yl]-methyl-amino}-piperidine-1-carboxylic acid tert-butyl ester] gave an EC50 of 0.051 µM.

`CS(=O)(=O)c1ccc2c(c1)CCN2c1cc(OC2CCN(C(=O)OC3CCN(Cc4cccc(F)c4)C3)CC2)ncn1` (stereo not shown) [Compound 21-2] had an EC50 of 0.278 µM.

`CC(C)(C)OC(=O)N1CCC(Oc2ncnc(N3CCc4cc(S(C)(=O)=O)ccc43)c2F)CC1` [Compound 13-1, 4-[5-Fluoro-6-(5-methanesulfonyl-2,3-dihydro-indol-1-yl)-pyrimidin-4-yloxy]-piperidine-1-carboxylic acid tert-butyl ester] displayed an EC50 of 0.382 µM.

As for `CC(C)(C)OC(=O)N1CCC(Oc2cc(N3CCc4nc(Cl)ccc43)ncn2)CC1` [Compound 20-1, 4-[6-(5-Chloro-2,3-dihydro-pyrrolo[3,2-b]pyridin-1-yl)-pyrimidin-4-yloxy]-piperidine-1-carboxylic acid tert-butyl ester], the response was half-maximal at 0.751 µM (EC50).

The compound `CS(=O)(=O)c1ccc2c(c1)CCN2c1cc(OC2CCN(C(=O)OC(CF)CF)CC2)ncn1` [Compound 5-5] came in with an EC50 of 0.242 µM.

Compound `CS(=O)(=O)c1ccc2c(c1)CCN2c1cc(OC2CCN(C(=O)OCC3CC3)CC2)ncn1` [Compound 5-2] yielded an EC50 of 0.023 µM.

`COCC(C)OC(=O)N1CCC(Oc2cc(N3CCc4cc(S(C)(=O)=O)ccc43)ncn2)CC1` (stereo not shown) [Compound 5-4] registered an EC50 of 0.1 µM.

In turn, `CC(C)OC(=O)N1CCC(Nc2cc(N3CCc4cc(S(C)(=O)=O)ccc43)ncn2)CC1` [Compound 6-1, 4-[6-(5-Methanesulfonyl-2,3-dihydro-indol-1-yl)-pyrimidin-4-ylamino]-piperidine-1-carboxylic acid isopropyl ester] had an EC50 of 0.611 µM.

The compound `CC(C)COC(=O)N1CCC(Oc2cc(N3CCc4cc(S(C)(=O)=O)ccc43)ncn2)CC1` [Compound 4-2] registered an EC50 of 0.042 µM.

`CS(=O)(=O)c1ccc2c(c1)CCN2c1cc(OC2CCN(C(=O)OC3CCN(Cc4ccc(F)cc4)C3)CC2)ncn1` (stereo not shown) [Compound 21-3]: a half-maximal effect (EC50) was put at 0.335 µM.

For `CS(=O)(=O)c1ccc2c(c1)CCN2c1cc(OC2CCN(C(=O)OC3CCN(Cc4cc(F)cc(F)c4)C3)CC2)ncn1` (stereo not shown) [Compound 21-5], it took 0.308 µM to reach a half-maximal effect (EC50).

`CCC(C)OC(=O)N1CCC(Oc2cc(N3CCc4cc(S(C)(=O)=O)ccc43)ncn2)CC1` (stereo not shown) [Compound 5-3] returned an EC50 of 0.035 µM.

`CS(=O)(=O)c1ccc2c(c1)CCN2c1cc(OC2CCN(C(=O)OC3CCC3)CC2)ncn1` [Compound 5-1, 4-[6-(5-Methanesulfonyl-2,3-dihydro-indol-1-yl)-pyrimidin-4-yloxy]-piperidine-1-carboxylic acid cyclobutyl ester] registered an EC50 of 0.024 µM.

Staying with this experiment, now noted: single concentration 10 μM; given where no EC50 value could be determined; HEK293 cells expressing mutant human GPR119.
In the case of `CC(C)(C)OC(=O)N1CC(Oc2cc(N3CCc4cc(S(C)(=O)=O)ccc43)ncn2)C1` [Compound 15-1, 3-[6-(5-Methanesulfonyl-2,3-dihydro-indol-1-yl)-pyrimidin-4-yloxy]-azetidine-1-carboxylic acid tert-butyl ester], the “% stimulation at 10 μM” value is 22%.

On to `CC(C)(C)OC(=O)N1CC[C@@H](Oc2cc(N3CCc4cc(S(C)(=O)=O)ccc43)ncn2)C1` [Compound 15-2, (R)-3-[6-(5-Methanesulfonyl-2,3-dihydro-indol-1-yl)-pyrimidin-4-yloxy]-pyrrolidine-1-carboxylic acid tert-butyl ester], for which the “% stimulation at 10 μM” value is given as 26%.

On to `CC(C)OC(=O)N1CCC(Oc2cc(N3CCc4cc(S(C)(=O)=O)ccc43)ncc2C#N)CC1` [Compound 24-1, 4-[5-Cyano-2-(5-methanesulfonyl-2,3-dihydro-indol-1-yl)-pyridin-4-yloxy]-piperidine-1-carboxylic acid isopropyl ester], for which the “% stimulation at 10 μM” value came out at 54%.

`CS(=O)(=O)c1ccc2c(c1)CCN2c1cc(OC2CCN(C(=O)OC3CCN(Cc4ccccc4F)C3)CC2)ncn1` (stereo not shown) [Compound 21-1, 4-[6-(5-Methanesulfonyl-2,3-dihydro-indol-1-yl)-pyrimidin-4-yloxy]-piperidine-1-carboxylic acid 1-(2-fluoro-benzyl)-pyrrolidin-3-yl ester]: the “% stimulation at 10 μM” value was determined as 78%*.

On to `CS(=O)(=O)c1ccc2c(c1)CCN2c1cc(OC2CCN(C(=O)OC3CCN(Cc4c(F)cccc4F)C3)CC2)ncn1` (stereo not shown) [Compound 21-6], for which the “% stimulation at 10 μM” value was determined as 84%*.
